From patent US7994156B2 (priority 2007, dated 2011)

How the values were obtained:
[1] = target: T1, α7-subtype of nicotinic receptors (Rattus norvegicus, UniProt Q05941); test: biochemical; assay type: binding
T1 construct: Cerebral cortices from male Wistar rats (150-250 g) are homogenised; from tissue; host or cells: cerebral cortex of male Wistar rats, washed membrane pellet

[2] = target: T2, dopamine (DA) reuptake in synaptosomes (Rattus norvegicus, UniProt P23977); test: Inhibition of DA reuptake in synaptosomes; assay type: biochemical; conditions: 3H-DA, read-out: DA-uptake IC50
T2 construct: in synaptosomes as described in WO 97/16451; from tissue
T2 sequence (P23977 whole entry): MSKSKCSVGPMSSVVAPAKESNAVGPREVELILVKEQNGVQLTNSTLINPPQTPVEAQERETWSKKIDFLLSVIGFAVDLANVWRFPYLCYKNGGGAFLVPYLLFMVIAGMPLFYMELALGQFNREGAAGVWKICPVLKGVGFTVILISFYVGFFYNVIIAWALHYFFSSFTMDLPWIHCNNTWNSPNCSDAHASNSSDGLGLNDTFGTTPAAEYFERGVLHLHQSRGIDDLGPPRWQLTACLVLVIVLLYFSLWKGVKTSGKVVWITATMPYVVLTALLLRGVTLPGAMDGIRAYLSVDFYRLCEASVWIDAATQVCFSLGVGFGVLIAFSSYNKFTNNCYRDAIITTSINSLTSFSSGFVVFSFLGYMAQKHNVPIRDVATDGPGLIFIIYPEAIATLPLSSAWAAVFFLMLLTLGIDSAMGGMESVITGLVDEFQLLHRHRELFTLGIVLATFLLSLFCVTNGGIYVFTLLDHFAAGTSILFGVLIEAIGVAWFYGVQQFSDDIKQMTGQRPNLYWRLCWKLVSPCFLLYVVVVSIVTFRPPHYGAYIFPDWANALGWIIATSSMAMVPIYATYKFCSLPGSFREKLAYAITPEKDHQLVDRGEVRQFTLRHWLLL
Experimental: (§1) A compound of the invention was tested for its ability to inhibit the reuptake of the monoamine neurotransmitters dopamine (DA) noradrenaline (NA) and serotonine (5-HT) in synaptosomes as described in WO 97/16451.
(§2) The test values are given as IC50 (the concentration (μM) of the test substance which inhibits the specific binding of ^3H-DA, ^3H-NA, or ^3H-5-HT by 50%).

[3] = target: T3, serotonine (5-HT) reuptake in synaptosomes (Rattus norvegicus, UniProt P31652); test: Inhibition of 5-HT reuptake in synaptosomes; assay type: biochemical; conditions: 3H-5-HT, read-out: 5-HT-uptake IC50
T3 construct: serotonine (5-HT) in synaptosomes as described in WO 97/16451; from tissue
T3 sequence (P31652 whole entry): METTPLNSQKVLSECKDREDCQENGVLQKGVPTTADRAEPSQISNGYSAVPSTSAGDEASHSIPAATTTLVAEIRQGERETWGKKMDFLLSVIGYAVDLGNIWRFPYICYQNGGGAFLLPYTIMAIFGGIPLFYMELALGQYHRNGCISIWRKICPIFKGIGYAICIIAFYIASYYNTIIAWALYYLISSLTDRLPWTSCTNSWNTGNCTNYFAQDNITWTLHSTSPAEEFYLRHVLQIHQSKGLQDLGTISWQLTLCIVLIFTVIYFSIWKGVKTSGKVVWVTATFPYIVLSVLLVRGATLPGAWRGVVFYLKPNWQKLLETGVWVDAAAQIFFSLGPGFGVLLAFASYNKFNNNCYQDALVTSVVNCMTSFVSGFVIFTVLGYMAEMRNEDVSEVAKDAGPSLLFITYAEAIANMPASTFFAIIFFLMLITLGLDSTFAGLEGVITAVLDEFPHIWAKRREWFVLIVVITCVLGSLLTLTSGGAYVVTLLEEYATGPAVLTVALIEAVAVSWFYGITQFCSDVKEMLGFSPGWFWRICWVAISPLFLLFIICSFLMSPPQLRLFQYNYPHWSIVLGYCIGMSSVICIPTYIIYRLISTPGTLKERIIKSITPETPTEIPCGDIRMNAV
Experimental: as §1, §2

T1 sequence (Q05941 23-502): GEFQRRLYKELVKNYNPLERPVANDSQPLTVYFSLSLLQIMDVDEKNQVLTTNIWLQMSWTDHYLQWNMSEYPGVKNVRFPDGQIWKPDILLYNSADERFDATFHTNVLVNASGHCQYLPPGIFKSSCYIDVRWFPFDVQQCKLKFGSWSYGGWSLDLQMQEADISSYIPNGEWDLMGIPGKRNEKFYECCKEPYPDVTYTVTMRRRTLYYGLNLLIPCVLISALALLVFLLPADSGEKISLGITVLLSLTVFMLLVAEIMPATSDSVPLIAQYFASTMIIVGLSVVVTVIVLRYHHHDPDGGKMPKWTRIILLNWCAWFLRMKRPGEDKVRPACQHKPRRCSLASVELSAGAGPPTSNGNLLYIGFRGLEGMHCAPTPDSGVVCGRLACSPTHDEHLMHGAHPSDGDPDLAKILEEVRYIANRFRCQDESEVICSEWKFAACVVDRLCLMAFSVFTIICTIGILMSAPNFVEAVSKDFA

O=C(Oc1ccc(N=Nc2ccccc2)cc1)N1CCN2CCC1CC2 [1,4-Diaza-bicyclo[3.2.2]nonane-4-carboxylic acid 4-phenylazo-phenyl ester]
IC50 [1]: 1600 nM
IC50 [2]: 32 nM
IC50 [3]: 13000 nM
